Converted amounts (≈) assume the structure as drawn.
What was measured:
Pseudomonas aeruginosa [1] = assay: Antimicrobial activity against Pseudomonas aeruginosa after 24 hrs by agar disk diffusion method; assay type: functional
Proteus mirabilis = assay: Antimicrobial activity against Proteus mirabilis after 24 hrs by agar disk diffusion method; assay type: functional
Aspergillus flavus = assay: Antifungal activity against Aspergillus flavus NCIM 524 after 3 to 4 days; assay type: functional
Staphylococcus aureus [2] = assay: Antimicrobial activity against Staphylococcus aureus ATCC 25923 after 24 hrs by disc diffusion method; assay type: functional; conditions: ATCC 25923, 24 h
Talaromyces marneffei = assay: Antifungal activity against Penicillium marneffei after 3 to 4 days; assay type: functional
Pseudomonas aeruginosa [3] = assay: Antimicrobial activity against Pseudomonas aeruginosa ATCC 27853 after 24 hrs by disc diffusion method; assay type: functional; conditions: ATCC 27853, 24 h
Klebsiella pneumoniae [4] = assay: Antimicrobial activity against Klebsiella pneumoniae after 24 hrs by disc diffusion method; assay type: functional
Klebsiella pneumoniae [5] = assay: Antimicrobial activity against Klebsiella pneumoniae after 24 hrs by agar disk diffusion method; assay type: functional
Escherichia coli [6] = assay: Antimicrobial activity against Escherichia coli ATCC 25922 after 24 hrs by disc diffusion method; assay type: functional; conditions: ATCC 25922, 24 h
Aspergillus fumigatus = assay: Antifungal activity against Aspergillus fumigatus NCIM 902 after 3 to 4 days; assay type: functional
Escherichia coli [7] = assay: Antimicrobial activity against Escherichia coli after 24 hrs by agar disk diffusion method; assay type: functional
[8] = tested on: Trichophyton mentagrophytes; assay: Antifungal activity against Trichophyton mentagrophytes after 3 to 4 days; assay type: functional
Candida albicans [9] = assay: Antifungal activity against Candida albicans; assay type: functional
Candida tropicalis = assay: Antifungal activity against Candida tropicalis; assay type: functional
Pseudomonas aeruginosa [10] = assay: Antimicrobial activity against Pseudomonas aeruginosa; assay type: functional
Staphylococcus aureus [11] = assay: Antimicrobial activity against Staphylococcus aureus; assay type: functional
Escherichia coli [12] = assay: Antimicrobial activity against Escherichia coli; assay type: functional
Bacillus subtilis [13] = assay: Antimicrobial activity against Bacillus subtilis; assay type: functional
Pichia kudriavzevii = assay: Antifungal activity against Candida krusei
Nakaseomyces glabratus = assay: Antifungal activity against Candida glabrata; assay type: functional
Escherichia coli [14] = assay: Antimicrobial activity against Escherichia coli assessed as zone of inhibition at 10 ug/ml; assay type: functional; conditions: read-out: IZ
Bacillus subtilis [15] = assay: Antimicrobial activity against Bacillus subtilis assessed as zone of inhibition at 10 ug/ml; assay type: functional; conditions: read-out: IZ
Lactococcus lactis = assay: Antimicrobial activity against Streptococcus lactis assessed as zone of inhibition at 10 ug/ml; assay type: functional; conditions: read-out: IZ
[16] = Antifungal activity against Rhodotorula ingeniosa assessed as zone of inhibition at 10 ug/ml; assay type: functional; conditions: Sampaiozyma ingeniosa; read-out: IZ
Penicillium = assay: Antifungal activity against Penicillium assessed as zone of inhibition at 10 ug/ml; assay type: functional; conditions: read-out: IZ
Aspergillus niger = assay: Antifungal activity against Aspergillus niger assessed as zone of inhibition at 10 ug/ml; assay type: functional; conditions: read-out: IZ
Streptomyces = assay: Antimicrobial activity against Streptomyces assessed as zone of inhibition at 10 ug/ml; assay type: functional; conditions: read-out: IZ
Pseudomonas = assay: Antimicrobial activity against Pseudomonas assessed as zone of inhibition at 10 ug/ml; assay type: functional; conditions: read-out: IZ
Candida albicans [17] = assay: Antifungal activity against Candida albicans assessed as zone of inhibition at 10 ug/ml; assay type: functional; conditions: read-out: IZ
Klebsiella pneumoniae [18] = assay: Antimicrobial activity against Klebsiella pneumoniae assessed as zone of inhibition at 5 mg/ml; assay type: functional; conditions: read-out: IZ
Escherichia coli [19] = assay: Antimicrobial activity against Escherichia coli assessed as zone of inhibition at 5 mg/ml; assay type: functional; conditions: read-out: IZ
Pseudomonas aeruginosa [20] = assay: Antimicrobial activity against Pseudomonas aeruginosa assessed as zone of inhibition at 5 mg/ml; assay type: functional; conditions: read-out: IZ
Staphylococcus aureus [21] = assay: Antimicrobial activity against Staphylococcus aureus assessed as zone of inhibition at 5 mg/ml; assay type: functional; conditions: read-out: IZ

MIC (Pseudomonas aeruginosa [1]) [mg/L]	MIC (Proteus mirabilis) [mg/L]	MIC (Aspergillus flavus) [mg/L]	MIC (Staphylococcus aureus [2]) [mg/L]	MIC (Talaromyces marneffei) [mg/L]	MIC (Pseudomonas aeruginosa [3]) [mg/L]	MIC (Klebsiella pneumoniae [4]) [mg/L]	MIC (Klebsiella pneumoniae [5]) [mg/L]	MIC (Escherichia coli [6]) [mg/L]	MIC (Aspergillus fumigatus) [mg/L]	MIC (Escherichia coli [7]) [mg/L]	MIC [8] [mg/L]	Structure (SMILES)	also measured
6.25 (≈ 15.2 µM)	6.25 (≈ 15.2 µM)	6.25 to 50 (≈ 15.2 to 122 µM)	6.25 to 50 (≈ 15.2 to 122 µM)	6.25 to 50 (≈ 15.2 to 122 µM)	6.25 to 50 (≈ 15.2 to 122 µM)	6.25 to 50 (≈ 15.2 to 122 µM)	6.25 (≈ 15.2 µM)	6.25 to 50 (≈ 15.2 to 122 µM)	6.25 to 50 (≈ 15.2 to 122 µM)	6.25 (≈ 15.2 µM)	6.25 to 50 (≈ 15.2 to 122 µM)	c1ccc(Cn2nnnc2SCCCSc2nnnn2-c2ccccc2)cc1	
6.25 (≈ 8.86 µM)	6.25 (≈ 8.86 µM)						6.25 (≈ 8.86 µM)			6.25 (≈ 8.86 µM)		CCC(C)n1ncn(-c2ccc(N3CCN(c4ccc(OCC5COC(Cn6cncn6)(c6ccc(Cl)cc6Cl)O5)cc4)CC3)cc2)c1=O (stereo not given) [ITRACONAZOLE]	
												Fc1cc2[nH]c(SCc3ccc(-c4ccccc4-c4nnnn4C(c4ccccc4)(c4ccccc4)c4ccccc4)cc3)nc2cc1-n1cncn1	MIC (Candida albicans [9]): 16 to 64 mg/L (≈ 22.5 to 89.9 µM); MIC (Candida tropicalis): 16 to 64 mg/L (≈ 22.5 to 89.9 µM); MIC (Pseudomonas aeruginosa [10]): 16 to 64 mg/L (≈ 22.5 to 89.9 µM); MIC (Staphylococcus aureus [11]): 16 to 64 mg/L (≈ 22.5 to 89.9 µM); MIC (Escherichia coli [12]): 16 to 64 mg/L (≈ 22.5 to 89.9 µM); MIC (Bacillus subtilis [13]): 16 to 64 mg/L (≈ 22.5 to 89.9 µM); MIC (Pichia kudriavzevii): 16 to 64 mg/L (≈ 22.5 to 89.9 µM); MIC (Nakaseomyces glabratus): 16 to 64 mg/L (≈ 22.5 to 89.9 µM)
												c1ccc2c(c1)nnn2Cc1nnn[nH]1	zone of inhibition at 10 µg/mL (Escherichia coli [14]): 11 to 16 mm; zone of inhibition at 10 µg/mL (Bacillus subtilis [15]): 11 to 16 mm; zone of inhibition at 10 µg/mL (Lactococcus lactis): 11 to 16 mm; zone of inhibition at 10 µg/mL [16]: 11 to 16 mm; zone of inhibition at 10 µg/mL (Penicillium): 11 to 16 mm; zone of inhibition at 10 µg/mL (Aspergillus niger): 11 to 16 mm; zone of inhibition at 10 µg/mL (Streptomyces): 11 to 16 mm; zone of inhibition at 10 µg/mL (Pseudomonas): 11 to 16 mm; zone of inhibition at 10 µg/mL (Candida albicans [17]): 11 to 16 mm
		6.25 to 50 (≈ 17.9 to 143 µM)	6.25 to 50 (≈ 17.9 to 143 µM)	6.25 to 50 (≈ 17.9 to 143 µM)	6.25 to 50 (≈ 17.9 to 143 µM)	6.25 to 50 (≈ 17.9 to 143 µM)		6.25 to 50 (≈ 17.9 to 143 µM)	6.25 to 50 (≈ 17.9 to 143 µM)		6.25 to 50 (≈ 17.9 to 143 µM)	CCn1nnnc1SCCCSc1nnnn1-c1ccccc1	
												Cc1nc2ccccc2cc1Cn1cc(CSc2nnnn2-c2ccccc2)nn1	zone of inhibition at 5000 µg/mL (Klebsiella pneumoniae [18]): 11 to 19 mm; zone of inhibition at 5000 µg/mL (Escherichia coli [19]): 11 to 19 mm; zone of inhibition at 5000 µg/mL (Pseudomonas aeruginosa [20]): 11 to 19 mm; zone of inhibition at 5000 µg/mL (Staphylococcus aureus [21]): 11 to 19 mm
